The text below walks through data of PubChem BioAssay AID1963985 (Molecular Pharmacology Branch, DTP, NCI, 2024).

pIC50: −log10 of the molar value. Where only a bound is given, the exact number is not on record here.

For the assay, the system named is 252836-082-R-J2-PDC tumor spheroids, viability. The assay can be described thus: Anticancer human tumor 252836-082-R-J2-PDC patient-derived head and neck squamous cell carcinoma cell line growth inhibition [PI3K]. As to conditions: spheroids with HUVEC and MSC; for viability, T/C: stronger effect = lower value. An excerpt:
Combinatorial screen of targeted agents with the PI3K inhibitors inavolisib, alpelisib, duvelisib, and copanlisib in multi-cell type tumor spheroids
A high-throughput screen of multi-cell type tumor spheroids was designed to identify active combinations of targeted small molecules and PI3K pathway inhibitors. Complex spheroids include a stromal component modeled by human endothelial cells (HUVEC) and fibroblasts modeled by human mesenchymal stem cells (MSCs). The concentration ranges selected for each drug and investigational agent were based upon clinically achievable concentrations if the clinical Cmax of the agent was known.
Compounds. The drugs and investigational agents: inavolisib (NSC800729), alpelisib (NSC765974), duvelisib (NSC772469), copanlisib (NSC816437), ipatasertib (NSC767898), afuresertib (NSC778305), talazoparib (NSC767125), sapanisertib (NSC764658), selumetinib (NSC741078), tovorafenib (DAY101, NSC766906), vemurafenib (NSC761431), ravoxertinib (NSC781343), sotorasib (NSC818433), MRTX1133 (NSC 836407), abemaciclib (NSC 768073), palbociclib (NSC758247), venetoclax (NSC 766270), SY5609 (NSC837396), enzalutamide (NSC755605), and darolutamide (NSC825331), were obtained from the National Cancer Institute (NCI) Developmental Therapeutics Program Chemical Repository. The FDA-approved anticancer drug set is available from the NCI Developmental Therapeutics Program. […] The stock solutions were prepared in dimethyl sulfoxide (DMSO, Sigma-Aldrich, St. Louis, MO, cat. D2650) at 800-fold the tested concentration and stored at -70 degrees C prior to their use. All drugs and investigational agents were tested over a range starting from a high concentration at or near the clinical Cmax and decreasing in half-log increments. If the clinical Cmax for an agent had not been determined, the highest concentration tested was 10 microM.
Cell Culture. All cells were maintained in an incubator at 37 degrees C and 5% CO2 with 95% humidity. The PDC lines were cultured according to standard operating procedures established by the NCI PDMR (https://pdmr.cancer.gov/sops/default.htm). All PDCs were thawed and cultured in Matrigel-coated flasks prepared with a working solution of 1X Ham's F-12 nutrient mix, without supplementation (Invitrogen, Waltham, MA, cat. 11765054), 100 U/mL penicillin-streptomycin (Invitrogen, cat. 15140122), and 2.5% Matrigel (Corning Inc., Corning, NY, cat. 354248) for the first three passages. The 354836-022-R-J1-PDC, 475296-252-R-J1-PDC, and 997726-040-R-J2-PDC lines were cultured in 6A media, which includes advanced DMEM/F-12 (Thermo Fisher Scientific, cat. 12634028), 10 mM HEPES (Thermo Fisher Scientific, cat. 15630080), 1X GlutaMAX supplement (Thermo Fisher Scientific, cat. 35050061), 0.1 mg/mL primocin (InvivoGen, San Diego, CA, cat. ant-pm-2), 10% defined fetal bovine serum, heat inactivated (HyClone Laboratories Inc., Logan, UT, cat. SH30070.03HI), 50% L-WRN conditioned media (ATCC, cat. CRL-3276), 1.25 mM N-Acetyl-L-cysteine (Sigma-Aldrich, cat. A9165), 10 mM nicotinamide (Sigma-Aldrich, cat. N0636), 1X B-27 supplement (Thermo Fisher Scientific, cat. 17504044), 1X N-2 supplement (Thermo Fisher Scientific, cat. 17502048), and 10 microM Y-27632 dihydrochloride (Tocris Bioscience, Bristol, United Kingdom, cat. 1254). The 624824-186-R-J2-PDC line was cultured in 6C/Colon 1B media, which includes all 6A media components plus 50 ng/mL human EGF recombinant protein (Thermo Fisher Scientific, cat. PHG0311). […]
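Note: spheroids exposed to agents for seven days before readout.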
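Throughout, for viability, T/C: percent of vehicle DMSO control viability so 100% = untreated growth.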

For `CC1(C)CCC(Nc2ncc(C(F)(F)F)c(-c3c[nH]c4c(P(C)(C)=O)c(C#N)ccc34)n2)CN1` (stereo not drawn) + CC(Nc1ncnc2nc[nH]c12)c1cc2cccc(Cl)c2c(=O)n1-c1ccccc1, the negative-log IC50 (pIC50) (in general, −log10 of the IC50, conventionally taken in molar units) (curve of first compound, second compound 0.0316 µM) is > 7.50; the pIC50 (curve of first compound, second compound 0.1 µM) is > 7.50; the pIC50 (curve of first compound, second compound 0.316 µM) was > 7.50; the pIC50 (curve of first compound, second compound 1 µM) was > 7.50; the pIC50 (curve of first compound, second compound 3.16 µM) was > 7.50; the pIC50 (curve of first compound, second compound 10 µM) was > 7.50. Moreover, the viability, T/C (in general, the ratio of treated to control) is, setting by setting: (second compound 0.0316 µM, first compound 0.0316 µM) 31.1%; (second compound 0.0316 µM, first compound 0.1 µM) 26.6%; (second compound 0.0316 µM, first compound 0.316 µM) 28.6%; (second compound 0.0316 µM, first compound 1 µM) 32.2%; (second compound 0.0316 µM, first compound 3.16 µM) 34.7%; (second compound 0.0316 µM, first compound 10 µM) 4.13%. Further, the viability, T/C by setting is: (second compound 0.1 µM, first compound 0.0316 µM) 34.2%; (second compound 0.1 µM, first compound 0.1 µM) 27.4%; (second compound 0.1 µM, first compound 0.316 µM) 31.6%; (second compound 0.1 µM, first compound 1 µM) 26.4%; (second compound 0.1 µM, first compound 3.16 µM) 36.9%; (second compound 0.1 µM, first compound 10 µM) 5.65%. Besides, the viability, T/C runs as follows: (second compound 0.316 µM, first compound 0.0316 µM) 32.4%; (second compound 0.316 µM, first compound 0.1 µM) 32.9%; (second compound 0.316 µM, first compound 0.316 µM) 27.7%; (second compound 0.316 µM, first compound 1 µM) 30.1%; (second compound 0.316 µM, first compound 3.16 µM) 33.8%; (second compound 0.316 µM, first compound 10 µM) 4.38%. Besides, the viability, T/C is 27.9% (second compound 1 µM, first compound 0.0316 µM); 31.8% (second compound 1 µM, first compound 0.1 µM); 32.4% (second compound 1 µM, first compound 0.316 µM); 28.7% (second compound 1 µM, first compound 1 µM); 33.4% (second compound 1 µM, first compound 3.16 µM); 4.12% (second compound 1 µM, first compound 10 µM). Besides, the viability, T/C is 26.3% (second compound 3.16 µM, first compound 0.0316 µM); 26.2% (second compound 3.16 µM, first compound 0.1 µM); 28% (second compound 3.16 µM, first compound 0.316 µM); 31.9% (second compound 3.16 µM, first compound 1 µM); 25.9% (second compound 3.16 µM, first compound 3.16 µM); 3.79% (second compound 3.16 µM, first compound 10 µM). Moreover, the viability, T/C is, setting by setting: (second compound 10 µM, first compound 0.0316 µM) 27.2%; (second compound 10 µM, first compound 0.1 µM) 21.5%; (second compound 10 µM, first compound 0.316 µM) 26%; (second compound 10 µM, first compound 1 µM) 23%; (second compound 10 µM, first compound 3.16 µM) 22.6%; (second compound 10 µM, first compound 10 µM) 1.83%.
For `C#Cc1c(F)ccc2cc(O)cc(-c3ncc4c(N5CC6CCC(C5)N6)nc(OCC56CCCN5CC(F)C6)nc4c3F)c12` (stereo not drawn), the viability, T/C is, setting by setting: (compound 0.0316 µM) 89.5% [middle of 4 runs]; (compound 1 µM) 87.9% [middle of 4 runs]; (compound 3.16 µM) 83.4% [middle of 4 runs]; (compound 10 µM) 67.8% [middle of 4 runs]. Also, the pIC50 (curve of compound) was < 5.00.
For `CNC(=O)c1ccc(N2C(=S)N(c3ccc(C#N)c(C(F)(F)F)c3)C(=O)C2(C)C)cc1F`, the viability, T/C is 92.5% [middle of 4 runs] (compound 0.1 µM); 105% [middle of 4 runs] (compound 0.316 µM); 96.4% [middle of 4 runs] (compound 1 µM); 94.9% [middle of 4 runs] (compound 3.16 µM); 94.5% [middle of 4 runs] (compound 10 µM). In addition, under “curve of compound”, the pIC50 is < 5.00.
